# Literature values in patent US20070281957A1, “Crystalline Forms of Levorphanol” (Mallinckrodt Inc., priority 2006, published 2007).
# Legend:
# [1] = levorphanol free base, known physical property
# [2] = levorphanol free base, known physical property; remark: listed apart in the source
structure (smiles),measurement,setting,value
"CN1CC[C@]23CCCC[C@H]2[C@H]1Cc1ccc(O)cc13 [Levorphanol, 3-Hydroxy-N-methylmorphinan]",Water solubility (at 25° C.),[1],1840 µg/mL
same,Vapor pressure (at 25° C.),[2],1.04 × 10^−6 mmHg
